Results reported in EP1779117B1, “METHODS FOR MEASURING ADAMTS13 ACTIVITY ON THE SURFACE OF PLATELETS” (American Diagnostica Inc., priority 2004, dated 2006).
Starred links: 1 amine or outer side, 2 acyl side, 3 side chain; linkers in the order of their positions; H or OH if unused. Residues, ends and D or L forms follow the SMILES beside them. *: point of attachment. EDANS = O=S(=O)(O)c1cccc2c(NCCN*)cccc12; pNA = O=[N+]([O-])c1ccc(N*)cc1; AMC = Cc1cc(=O)oc2cc(N*)ccc12; Suc = O=C(CCC(=O)[*:2])[*:1]

Legend:
ADAMTS13 = assay: Cleavage of peptidyl substrates by ADAMTS13 in PRP (optical density / fluorescence); assay type: biochemical; settings: for cleavage by ADAMTS13 in PRP: normal PRP 20 µl, 10 mM Tris-HCl pH 8.0, 37° C, Ex 360 nm/ Em 460 nm
Description: As discussed above, Furlan et al. reported that some peptidyl-pNA moieties, such as XLY-pNA and XVY-pNA, were not substrates for ADAMTS13. We prepared LVY-pNA and tested it for its ability to be cleaved by ADAMTS 13. The results shown in Figure 2 confirm the findings of Furlan et al., i.e., LVY-pNA was not cleaved by ADAMTS13.
In order to determine the effect of modifying the length of the peptide sequence conjugated to the AMC fluorochrome, normal PRP (20 µl) was incubated at 37° C with a final concentration of 0.8 mM Suc-LLVY-AMC or LVY-AMC in 10 mM Tris-HCl pH 8.0 buffer in total volume of 200 µl. Fluorescence was measured using a microtiter fluorophotometric plate reader (Ex 360 nm/ Em 460 nm).

[1] = tested on: ADAMTS13 found on platelets; assay: FRET substrate cleavage by isolated platelets; assay type: biochemical; settings: 8 µg/ml substrate, 10mM Tris-HCl pH 8.0, 37°C, Ex 360 nm/ Em 440 nm, Figure 4
Description: ADAMTS13 activity was measured using a fluorescent substrate attached to a donor moiety and an acceptor moiety that functions by fluorescence resonance energy transfer (FRET). The ADAMTS 13 selective substrate, NH2-Arg-Lys(DABCYL)-NLVYMVTGD(EDANS)-Arg-COOH, was used in this example. The NLVYMVTGD peptide sequence of this substrate is homologous to the ADAMTS13 cleavage site on VWF. The intact peptidyl substrate has low fluorescence, due to quenching of the […]. Cleavage of the substrate between the tyrosine and methionine of the peptide sequence results in an increase in fluorescence.
Isolated platelets in 10mM Tris-HCl pH 8.0 assay buffer were incubated with a final concentration of 8 µg/ml of the FRET substrate at 37°C. The fluorescence was measured in a spectrofluorometric plate reader (Ex 360 nm/ Em 440 nm). […] The skilled artisan can design other FRET substrates for measuring ADAMTS 13 activity using his or her own knowledge and the teachings herein.

Cc1cc(=O)oc2cc(NC(=O)[C@H](Cc3ccc(O)cc3)NC(=O)[C@@H](NC(=O)[C@@H](N)CC(C)C)C(C)C)ccc12 [LVY-AMC, Leu-Val-Tyr-AMC] (H-Leu-Val-Tyr-{AMC})
cleavage by ADAMTS13 in PRP (ADAMTS13; 0.8 mM substrate, Figure 3): cleaved

NH2-Arg-Lys-(DABCYL)- Asn-Leu- Val-Tyr-Met- Val- Thr-Gly-Asp-(EDANS)-Arg-COOH ({H2N-Arg-K(DABCYL)}-NLVYMVTGD(EDANS)R-OH; also: EDANS after Asp (on Asp side chain or between Asp and Arg))
fluorescence on incubation with platelets (cleavage of FRET substrate) [1]: increased fluorescence over time

CC(C)C[C@H](N)C(=O)N[C@H](C(=O)N[C@@H](Cc1ccc(O)cc1)C(=O)Nc1ccc([N+](=O)[O-])cc1)C(C)C [LVY-pNA] (H-Leu-Val-Tyr-pNA)
cleavage by ADAMTS13 (ADAMTS13; LVY-pNA tested as substrate, Figure 2): not cleaved

Cc1cc(=O)oc2cc(NC(=O)[C@H](Cc3ccc(O)cc3)NC(=O)[C@@H](NC(=O)[C@H](CC(C)C)NC(=O)[C@H](CC(C)C)NC(=O)CCC(=O)O)C(C)C)ccc12 [Suc-LLVY-AMC, Suc-Leu-Leu-Val-Tyr-AMC] (Suc-LLVY-{AMC})
cleavage by ADAMTS13 in PRP (ADAMTS13; 0.8 mM substrate, Figure 3): cleaved | fluorescence signal over time compared to the other AMC substrate (ADAMTS13; normal PRP, 0.8 mM substrate, 37° C, Figure 3): higher signal over time
